Values of other authors in patent publication US10858575B2, “Temperature-stable corrosion inhibitor compositions and methods of use” (ChampionX USA Inc., priority 2017, dated 2020).

Settings: octanol/water

Question: For `O=C1CCCO1`, which LogP is on record?
Answer: −0.57

Settings: at 20° C.

Question: For `CCCCOCCOCCO` [diethylene glycol butyl ether], which vapor pressure is on record?
Answer: 30 mm Hg

Question: With `CCOCCOCCO` [diethylene glycol ethyl ether] as the compound, how does the vapor pressure read?
Answer: 0.12 mm Hg

Question: For `CCCCCCOCCOCCO` [diethylene glycol hexyl ether], which vapor pressure is on record?
Answer: 0.001 mm Hg

Question: For `COCCOCCO` [diethylene glycol methyl ether], which vapor pressure is on record?
Answer: 0.2 mm Hg

Question: With `COC(C)COC(C)CO` (centres unmarked) [dipropylene glycol methyl ether] as the compound, how does the vapor pressure read?
Answer: 0.28 mm Hg

Question: With `CCCOC(C)COC(C)CO` (centres unmarked) [dipropylene glycol propyl ether] as the compound, how does the vapor pressure read?
Answer: 0.08 mm Hg

Question: With `CCCCOCCO` [ethylene glycol butyl ether] as the compound, how does the vapor pressure read?
Answer: 10 mm Hg

Question: For `CCOCCO` [ethylene glycol ethyl ether], which vapor pressure is on record?
Answer: 3.8 mm Hg

Question: Which vapor pressure does the source give for `CCCCCCOCCO` [ethylene glycol hexyl ether] here?
Answer: 0.05 mm Hg

Question: For `CCCCOCC(C)O` (centres unmarked) [propylene glycol butyl ether], which vapor pressure is on record?
Answer: 0.85 mm Hg

Question: For `COCC(C)O` (centres unmarked) [propylene glycol methyl ether], which vapor pressure is on record?
Answer: 8.7 mm Hg

Question: Which vapor pressure does the source give for `CCCOCC(C)O` (centres unmarked) [propylene glycol propyl ether] here?
Answer: 4.5 mm Hg

Question: Which vapor pressure does the source give for `CCCCOC(C)COC(C)COC(C)CO` (centres unmarked) [tripropylene glycol butyl ether] here?
Answer: 0.002 mm Hg
